Assay results as given in paper PMC10762078, “Role of UPF1-LIN28A interaction during early differentiation of pluripotent stem cells” (Nature Communications, 2024).

Test system: CHA15 cells transcriptome / NMD targets
Assay: RNA-seq of CPP-P8/CPP-P1-treated CHA15 cells with siControl or siLIN28A (Supplementary Fig. 6e)
Assay type: cell-based, Homo sapiens
Protocol: For CPP-conjugated peptide delivery, HeLa, 293T, and PA-1 cells were incubated with CPP-conjugated peptides or CPP-FITC at 2 μM in DMEM with 10% FBS for 12 h a day before cell harvest. hPSCs were treated with CPP-conjugated peptides at 10 μM in mTeSR Plus Medium, and the peptide-containing medium was changed every day over 10 days. The ROCK inhibitor (Tocris Bioscience, Y-27632) treated-hPSCs were dissociated into single cells using Accutase (Merck, SCR005) and differentiated into ectoderm, mesoderm, and endoderm using the STEMdiff Trilineage Differentiation Kit ([…] Technologies, 05230) following the manufacturer’s protocol. Differentiated cells treated with CPP-conjugated peptides were analysed at 0, 3, and 5 days for ectoderm and endoderm, and at 0, 3, and 4 days for mesoderm.
Total RNA concentration was calculated using Quant-IT RiboGreen (Invitrogen, R11490). To assess the integrity of the total RNA, samples were run on a TapeStation RNA screentape (Agilent). Only high-quality RNA preparations with RNA integrity number greater than 7.0 were used for the RNA library construction. A library was independently prepared with 1 μg of total RNA from each sample using the Illumina TruSeq Stranded mRNA Sample Prep Kit (Illumina, 20020594). The first step in the workflow involves purifying poly‐A-containing mRNA molecules using poly‐T‐attached magnetic beads. Following purification, mRNA was fragmented into small pieces using divalent cations at elevated temperatures. The cleaved RNA fragments were copied into first-strand cDNA using SuperScript II reverse transcriptase (Invitrogen, 18064022) and random primers. This was followed by second-strand cDNA synthesis using DNA polymerase I, RNase H, and dUTP. These cDNA fragments underwent an end repair process, adding a single ‘A’ base and ligating the adapters. The products were purified and enriched via PCR to create the final cDNA library. The libraries were quantified using the KAPA Library Quantification Kits for Illumina Sequencing platforms according to the qPCR Quantification Protocol Guide (KAPA BIOSYSTEMS, KR0405) and qualified using the TapeStation D1000 ScreenTape (Agilent). Indexed libraries were then submitted to an Illumina NovaSeq (Illumina), and Macrogen Inc. performed paired-end (2 × 100 bp) sequencing.
We pre-processed the raw reads from the sequencer to remove low-quality reads and adapter sequences before analysis and aligned the processed reads to Homo sapiens (GRCh37) using HISAT v2.1.0[52]. HISAT utilises two indices for alignment (a global whole-genome index and tens of thousands of small local indexes). These two types of indices are constructed using the same Burrows-Wheeler transform (BWT)/graph FM index (GFM) as Bowtie2. The reference genome sequence of Homo sapiens (GRCh37) and the annotation data were downloaded from the NCBI database. Transcript assembly was processed using StringTie v1.3.4d[53],[54]. […] Differentially expressed genes (DEGs) were analysed by ratio of FPKM or using DESeq2 with read counts. Log2 fold-change value of the NMD targets[25],[32], three germ layer markers, miRNA targets, or SDGs was converted into cumulative frequency curve using the R function, ‘ecdf’ (version 4.0.5). Gene functional classification and Gene ontology (GO) were performed using g:Profiler[56]. […]
Scale bars, 100 μm . d (Corresponding to Fig. 6d) RT -qPCR was perform ed to evaluate the level of indicated transcripts upon the indicated peptide treatm ent in CHA15 cells. e T ranscriptom e analysis was perf orm ed using signif icantly changed transcripts (p < 0.05) f rom siLIN28A or siControl in the indicated CPP-peptide treated CHA15 cells. Scatter […]
(bottom panel), respectively. f Levels of m ature endogenous m iRNAs in CHA15 cells, which were regulated by LIN28A, were assessed using RT -qPCR. Cum ulative f raction of log2 fold change in the expression of genes regulated by let-7-5p and m iR-16- 5p was shown as CDF graphs. […]

[1] = CHA15, absence of LIN28A (siRNA)

“KKKWCRKKKSSADEKRYRALKRTAERELLMNA [CPP-P8, CPP conjugated to P8]” was tested, and the “fraction deregulated in a LIN28A-independent manner” value (7 (6+1) out of 95 (42+53)) was 7.4%, the “transcripts downregulated over 2-fold” value [1] was 2 transcripts and the “transcripts upregulated over 2-fold” value [1] was 12. The “transcripts downregulated over 2-fold” value (CHA15, presence of LIN28A) was 53 transcripts, the “transcripts upregulated over 2-fold” value (CHA15, presence of LIN28A) was 42 transcripts and the FEZF1-AS1 expression (CHA15, siControl) was 20.4087 FPKM. It also gave an LHX5-AS1 expression (CHA15, siControl) of 61.4319 FPKM, an LMO1 expression (CHA15, siControl) of 15.1171 FPKM and a CUZD1 expression (CHA15, siLIN28A) of 5.545 FPKM. For the same sequence, the CXCL5 expression (CHA15, siLIN28A) was 5.9 FPKM, the MT2A expression (CHA15, siLIN28A) was 11.8304 FPKM and the “transcriptome change in absence of LIN28A” value (hESCs, siLIN28A) was “less impact on the transcriptome change, including NMD targets, in the absence of LIN28A”.
